Laboratory results published in patent US6492365B1, “Microsomal triglyceride transfer protein” (Bristol-Myers Squibb Company, priority 1992, dated 2002).
Where a name gives a salt, the structure may show the parent alone.

System: apoB secretion from HepG2 cells
Assay: ApoB secretion from HepG2 cells (ELISA of culture media)
Format: cell-based, human
Protocol: (§1) HepG2 cells were treated with compound A at the indicated doses for 16 hours. The concentration in the cell culture media of apoB, apoAI and HSA after the incubation period was measured with the appropriate ELISA assay and normalized to total cell protein. The data shown are expressed as a percentage of the control (DMSO only).
as §1, with “compound B” for “compound A”
The human hepatoblastoma cell line, HepG2, was obtained from the American Type Culture Collection (Rockville, Md.; ATCC accession no. 8065). […]
Experiments to measure the effects of compounds A and B on protein secretion were carried out in 48-well plates. […] Before commencement of drug treatment, culture medium was removed, the cells washed once with PBS and 1 mL of fresh medium was added quantitatively. […] The cells were homogenized by trituration with a 1 mL micropipettor, and protein was measured using the Coomassie reagent (Pierce Chemical Co, Rockford, Ill.) as described by the manufacturer. […]

SMILES | IC50 (Homo sapiens, 16-hour incubation, 0.156 to 20 μM, read-out: IC50 for inhibition of apoB secretion) | secretion of lipoproteins that contain apoB (result in words)
O=C1c2ccccc2CN1C1CCN(CCC(c2ccccc2)c2ccccc2)CC1 [compound A, 2-[1-(3,3-diphenylpropyl)-4-piperdinyl]-2,3-dihydro-3-oxo-1H-isoindole hydrochloride] | 5 µM | –
COc1ccccc1N1CCN(CC2CC(=O)c3ccc(F)cc3C2)CC1 (centres unmarked) [compound B, 1-[3-(6-fluoro-1-tetralanyl)methyl]-4-O-methoxyphenyl piperazine] | – | inhibited
